From ChEMBL document CHEMBL1201862, “PubChem BioAssay data set” (2004)
Activity calls are given as the source filed them.

Columns and labels:
[1] = tested on: Streptococcus sp. 'group A'; assay: Streptococcus pyogenes SK(-)GAS viability under kanamycin – luminescence, BacTiterGlo, confirmation, counter-screen for streptokinase expression inhibitor project, dose response (AID 1900); type: functional, organism-based
Nonstructural protein 1 = Nonstructural protein 1 (Influenza A virus, UniProt Q194T2); type: functional, Influenza A virus (A/California/07/2009(H1N1))
[2] = target: Photoreceptor-specific nuclear receptor (Homo sapiens, UniProt Q9Y5X4); type: functional, cell-based;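 note: CHO-S cells with Gal4-NCOR and VP16-NR2E3 two-hybrid luciferase reporter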
[3] = target: Serine/threonine-protein phosphatase PP1-alpha catalytic subunit (Homo sapiens, UniProt P62136); assay: inhibition of protein phosphatase 1 activity – biochemical, fluorescence, dose response (AID 2403);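 note: phosphatase turnover of OMFP into fluorescent 3-O-methylfluorescein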
cells [4] = type: functional, cell-based
[5] = Trypanosoma cruzi growth suppression in host cells – NIH3T3 host cells, beta-gal luminescence, confirmation (AID 2044); type: functional, cell-based;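 note: intracellular parasites grown in NIH/3T3 mouse fibroblasts as host cells; luminescent beta-galactosidase reporter signal from transgenic T. cruzi replicating inside host cells; inhibitors lower the luminescence signal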
[6] = NIH3T3 cell viability loss – ATP luminescence, mouse fibroblasts, counter-screen, dose response (AID 2010); type: functional, cell-based;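 note: cells exposed to compound for about 90 hours before reading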
cells [7] = type: functional, cell-based; remark: listed apart in the source
[8] = ATP-based viability loss in HeLa cells – cell-based, CellTiter-Glo luminescence, dry powder, set 2, cytotoxicity control, dose response (AID 720593); type: functional
[9] = target: Serine/threonine-protein phosphatase (Homo sapiens, UniProt Q9BPW0); assay: Counterscreen for inhibitors of PP1: fluorescence-based biochemical high throughput dose response assay to identify inhibitors of Protein Phosphatase 5 (PP5). [Related pubchem assays: 2034 (Summary (PP5 inhibitors)), 1987 (PP5 inhibitors in singlate), 2235 (PP1 inhibitors in singlate)]
Streptococcus = assay: GAS UMAA2166 growth inhibition – luminescence, BacTiterGlo, counter-screen for streptokinase expression inhibitor project, dose response (AID 1915); type: functional, organism-based;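 note: potency for reduction of bacterial viability or growth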
INS1 = assay: INS-1E survival protection against cytokine death – cell-based, luminescence, retest, dose response (AID 449756); type: functional; details: Rattus norvegicus;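 note: cell death triggered by IL-1 beta plus TNF-alpha plus IFN-gamma mixture; protective hits raise ATP signal compared with cytokine alone wells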
HEK293 = assay: viability loss in HEK293T cells – cell-based, ATP luminescence, cherry-pick samples, cytotoxicity control, dose response (AID 687005); type: functional; details: Homo sapiens;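 note: cells exposed to compound for 48 hours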
[10] = HEK293 Cytotoxicity Assay Measured in Cell-Based System Using Plate Reader - 7071-01_Inhibitor_Dose_CherryPick_Activity_Set2.; type: functional
[11] = Inhibition of T. cruzi Tulahuen strain amastigotes in L-6 muscle cells Measured in Cell-Based and Microorganism Combination System Using Plate Reader - 2138-03_Inhibitor_Dose_CherryPick_Activity.; type: functional; details: Rattus norvegicus, L6
[12] = African trypanosome bloodstream form growth inhibition – STIB900 strain, plate reader, cherry pick, dose response (AID 651893); type: functional, cell-based, Trypanosoma brucei rhodesiense; details: Trypanosoma brucei
[13] = T. cruzi growth inhibition in host cells, dose response, cell-based, plate reader, dry powder, set 2 (AID 652275); type: functional
[14] = L6 myocyte viability loss – cell-based, plate reader, cherry-pick, cytotoxicity control, dose response (AID 651896); type: functional
[15] = mouse fibroblast viability loss – cell-based, cherry-pick samples, set 2, cytotoxicity control for T. cruzi growth inhibitor project, dose response (AID 651817); type: functional; details: NIH3T3
[16] = Trypanosoma cruzi replication inhibitors in host cells – cell-based, plate reader, dry powder samples, dose response (AID 651845); type: functional
[17] = Inhibition of Plasmodium falciparum NF54 Measured in Cell-Based System Using Plate Reader - 2138-11_Inhibitor_Dose_CherryPick_Activity.; type: functional
[18] = antileishmanial activity on axenic amastigotes – plate reader, cherry pick, dose response (AID 651891); type: functional, cell-based; details: Leishmania donovani
[19] = anti-trypanosomal activity in BESM host cells – imaging, CA-I/72 strain, bovine embryo skeletal muscle, dry powder, dose response (AID 651885); type: functional, cell-based
[20] = intracellular Trypanosoma cruzi inhibitors in host cells – cell-based, plate reader, cherry-pick samples, set 3, dose response (AID 651818); type: functional;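 note: compounds incubated with infected cells for about four days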
[21] = activation of miR-122 Renilla sensor silencing – cell-based, Huh7 psiCHECK-miR122, Renilla luciferase, cherry-picked, dose response (AID 651956); type: functional;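 note: huh7 hepatoma cells stably carrying a psiCHECK-2 miR-122 sensor plasmid; renilla luciferase signal reporting endogenous miR-122 activity after 48 h compound exposure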
[22] = general mammalian cell viability loss – inhibitor set, cherry-pick, set 2, cytotoxicity control for miR-122 modulator project, dose response (AID 720697); type: functional, cell-based
[23] = general mammalian cell viability loss – activator set, cherry-pick, cytotoxicity control for miR-122 modulator project, dose response (AID 720690); type: functional, cell-based;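 note: HEK293T human cells scored for general mammalian cytotoxicity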
[24] = cytotoxicity in MITF-independent A375 cells – cell-based, CellTiter-Glo luminescence, dry powder, set 4, counter-screen for MITF inhibitor project, dose response (AID 624364); type: functional; details: A-375;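 note: A375 melanoma cells are MITF independent so this is a counter screen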
[25] = viability loss in MITF-independent A375 cells – cell-based, CellTiter-Glo luminescence, dry powder, set 2, counter-screen for MITF inhibitor project, dose response (AID 624489); type: functional; details: A-375;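 note: actives are compounds lowering A375 viability meaning general cytotoxicity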
[26] = Late stage counterscreen for inhibitors of Trypanosoma brucei methionyl tRNA synthetase (MetRS): Luminescence-based cell-based high throughput dose response assay to identify compounds that are cytotoxic to Jurkat human T lymphocyte cells.; type: functional
[27] = target: T1, Methionyl-tRNA synthetase, putative (Trypanosoma brucei brucei, UniProt Q38C91); type: functional, Trypanosoma brucei brucei strain 927/4 GUTat10.1
T1 sequence (Q38C91 whole entry): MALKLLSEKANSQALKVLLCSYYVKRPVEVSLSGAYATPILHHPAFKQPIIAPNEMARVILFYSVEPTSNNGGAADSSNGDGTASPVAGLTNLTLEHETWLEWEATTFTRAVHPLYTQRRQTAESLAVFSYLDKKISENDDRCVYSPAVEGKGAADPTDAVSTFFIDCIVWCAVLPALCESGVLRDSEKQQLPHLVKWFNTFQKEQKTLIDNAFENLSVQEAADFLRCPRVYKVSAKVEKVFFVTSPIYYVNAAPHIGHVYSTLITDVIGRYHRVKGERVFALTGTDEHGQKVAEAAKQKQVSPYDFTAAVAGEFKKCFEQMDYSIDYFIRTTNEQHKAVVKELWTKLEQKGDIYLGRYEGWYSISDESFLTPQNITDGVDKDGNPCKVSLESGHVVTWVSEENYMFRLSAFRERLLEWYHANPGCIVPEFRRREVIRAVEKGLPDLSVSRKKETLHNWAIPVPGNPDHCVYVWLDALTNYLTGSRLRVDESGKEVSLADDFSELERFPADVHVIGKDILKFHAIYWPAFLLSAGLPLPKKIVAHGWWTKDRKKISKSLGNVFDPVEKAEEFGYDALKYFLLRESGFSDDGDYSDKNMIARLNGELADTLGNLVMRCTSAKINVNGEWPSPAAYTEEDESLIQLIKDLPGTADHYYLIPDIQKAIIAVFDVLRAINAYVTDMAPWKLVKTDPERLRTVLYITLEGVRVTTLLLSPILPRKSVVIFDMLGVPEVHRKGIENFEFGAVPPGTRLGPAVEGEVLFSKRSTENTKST

[28] = target: T1, Methionyl-tRNA synthetase, putative; type: functional, Trypanosoma brucei brucei strain 927/4 GUTat10.1; remark: listed apart in the source
[29] = Counterscreen for inhibitors of Trypanosoma brucei methionyl tRNA synthetase (MetRS): Luminescence-based cell-based high throughput dose response assay to identify compounds that are cytotoxic to Jurkat human T lymphocyte cells.; type: functional
Protein Tat = target: T2, Protein Tat (Human immunodeficiency virus type 1 group M subtype B (isolate HXB2)(HIV-1), UniProt P04608); type: functional;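 note: tat binding to TAR RNA read out by fluorescence polarization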
T2 sequence (P04608 whole entry): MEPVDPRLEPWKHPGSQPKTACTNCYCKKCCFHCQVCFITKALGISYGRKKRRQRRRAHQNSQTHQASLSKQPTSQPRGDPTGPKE

[30] = IC50 of Artemis nuclease activity blockers – biochemical, fluorescence intensity, dose response (AID 720701); type: functional;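 note: Artemis endonuclease enzyme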
[31] = HIV-1 Vif–A3G interaction blockers – biochemical, TR-FRET, GST-Vif 1-94, biotin-A3G peptide, dose response retest, primary screen (AID 1117319); type: functional;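 note: TR-FRET signal of purified GST-Vif binding a biotinylated A3G peptide; inhibitors lower the FRET signal by blocking Vif and A3G binding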
[32] = viability loss in Vero cells – cytotoxicity control for Vif-APOBEC3G degradation inhibitor project, dose response (AID 1117358); type: functional; details: Vero
cells [33] = assay: cells

Sequence of Serine/threonine-protein phosphatase (Q9BPW0 whole entry): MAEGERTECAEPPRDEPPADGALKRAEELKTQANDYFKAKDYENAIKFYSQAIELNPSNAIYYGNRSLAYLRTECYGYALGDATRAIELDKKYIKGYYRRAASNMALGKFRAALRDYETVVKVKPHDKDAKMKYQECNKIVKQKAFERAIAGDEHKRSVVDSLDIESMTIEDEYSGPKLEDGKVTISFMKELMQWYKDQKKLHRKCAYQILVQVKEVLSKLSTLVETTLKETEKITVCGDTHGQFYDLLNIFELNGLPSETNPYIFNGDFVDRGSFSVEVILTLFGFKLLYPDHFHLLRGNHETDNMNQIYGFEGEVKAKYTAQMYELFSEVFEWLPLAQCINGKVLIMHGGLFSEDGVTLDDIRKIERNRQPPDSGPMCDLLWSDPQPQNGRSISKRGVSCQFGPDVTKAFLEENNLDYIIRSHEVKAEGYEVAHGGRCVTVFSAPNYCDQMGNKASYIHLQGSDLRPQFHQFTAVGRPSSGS
Sequence of Photoreceptor-specific nuclear receptor (Q9Y5X4 whole entry, the tested form may be a part): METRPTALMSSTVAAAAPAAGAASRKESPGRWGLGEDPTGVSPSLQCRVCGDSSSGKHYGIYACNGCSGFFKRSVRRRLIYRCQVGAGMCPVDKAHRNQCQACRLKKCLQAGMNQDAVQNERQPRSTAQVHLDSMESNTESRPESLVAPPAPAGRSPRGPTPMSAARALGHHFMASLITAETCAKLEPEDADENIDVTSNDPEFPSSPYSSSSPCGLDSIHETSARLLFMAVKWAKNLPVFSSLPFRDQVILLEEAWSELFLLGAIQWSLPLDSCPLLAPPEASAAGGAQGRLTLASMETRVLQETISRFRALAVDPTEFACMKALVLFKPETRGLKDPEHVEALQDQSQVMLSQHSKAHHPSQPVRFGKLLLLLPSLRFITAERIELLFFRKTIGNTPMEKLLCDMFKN
Sequence of Serine/threonine-protein phosphatase PP1-alpha catalytic subunit (P62136 whole entry): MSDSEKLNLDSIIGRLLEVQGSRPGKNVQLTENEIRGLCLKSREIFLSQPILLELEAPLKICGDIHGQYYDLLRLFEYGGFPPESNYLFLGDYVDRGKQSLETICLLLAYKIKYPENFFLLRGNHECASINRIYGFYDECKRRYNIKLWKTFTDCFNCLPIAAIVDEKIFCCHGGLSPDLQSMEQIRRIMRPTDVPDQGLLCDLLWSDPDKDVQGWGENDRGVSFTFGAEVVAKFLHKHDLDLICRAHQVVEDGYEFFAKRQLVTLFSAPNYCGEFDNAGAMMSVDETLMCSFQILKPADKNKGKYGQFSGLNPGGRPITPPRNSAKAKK
Sequence of Nonstructural protein 1 (Q194T2 whole entry, the tested form may be a part): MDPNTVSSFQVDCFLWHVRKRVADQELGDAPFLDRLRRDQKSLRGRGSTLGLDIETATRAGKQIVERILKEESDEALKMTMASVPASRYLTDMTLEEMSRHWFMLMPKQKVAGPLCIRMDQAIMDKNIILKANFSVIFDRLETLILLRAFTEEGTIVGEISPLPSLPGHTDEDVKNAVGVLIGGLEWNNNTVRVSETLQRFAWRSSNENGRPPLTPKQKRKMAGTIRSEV

In the case of Nc1nc(-c2ccccn2)nc(N)c1Cc1ccc(Cl)cc1Cl, the EC50 [1] is reported as 3.52 µM (active), the IC50 (Nonstructural protein 1) is reported as 5.11 µM (active) and the IC50 [2] is reported as 4.53 µM (active). For the same compound, the IC50 [3] was 8.64 µM (active), the EC50 (cells [4]) was > 350 µM (not active) and the EC50 [5] was 1.26 µM (active). For the same compound, the EC50 [6] was < 6 µM (inconclusive), the EC50 (cells [7]) was 13.9 µM (active) and the AC50 [8] was > 52 µM (inactive). For the same compound, the IC50 [9] was 47.5 µM (not active), the EC50 (Streptococcus) was 13.5 µM (active) and the AC50 (INS1) was 4.55 µM (active).
In the case of Cc1ccc(S(=O)(=O)N2CC[C@@H]3[C@H](CO)Nc4ccc(-c5ccccc5F)cc4[C@@H]32)cc1, the AC50 (HEK293) is reported as 44.6 µM (active) and the AC50 [10] is reported as 44.6 µM (active).
For C[C@H]1CN([C@@H](C)CO)C(=O)c2cccc(NC(=O)c3ccncc3)c2O[C@@H]1CN(C)Cc1ccc(C(F)(F)F)cc1, the IC50 [11] was 2.95 µM (inactive), the IC50 [12] was 3.49 µM (inactive) and the AC50 [13] was 0.0127 µM (active). The IC50 [14] was 45.5 µM (inactive), the AC50 [15] was 39 µM (inactive) and the AC50 [16] was 0.0127 µM (active). For the same compound, the IC50 [17] was 2.95 µM (inactive), the IC50 [18] was 16.3 µM (inactive) and the IC50 [19] was 0.00601 µM (active). The AC50 [20] was 0.304 µM (active).
In the case of CN1C(=O)c2cc(NC(=O)c3ccc(C(F)(F)F)cc3)ccc2OC[C@H]2O[C@H](CC(=O)NCc3ccc4c(c3)OCO4)CC[C@H]21, the AC50 [21] is reported as 12.3 µM (active), the AC50 [22] is reported as 0.571 µM (active) and the AC50 [23] is reported as 28.4 µM (active).
For O=C(NC1=C(N2CCCCC2)C(=O)c2ccccc2C1=O)c1ccccc1, the AC50 [24] was 54.4 µM (active) and the AC50 [25] was > 70 µM (inactive).
In the case of O=C(N/C(=C\c1cccnc1)c1nc2ccccc2[nH]1)c1cccc(Br)c1, the IC50 [26] is reported as > 83.3 µM (inactive), the IC50 [27] is reported as 4.56 µM (active) and the IC50 [28] is reported as 8.16 µM (active). The IC50 [29] was 83.3 µM (inactive).
For COc1ccc(C2CC(c3ccccc3)n3nc(NC(=O)c4cccs4)nc3N2)cc1 (stereo not drawn), the IC50 (Protein Tat) was > 100 µM (active), the IC50 [30] was 6.96 µM (active) and the IC50 [31] was > 100 µM (active). The CC50 [32] was > 40 µM (active).
With CCN(CC)CCNC(=O)c1sc2nc(-c3ccccc3)cn2c1C the AC50 (cells [33]) was 57 µM (active).
